Read-outs that look alike come from different tables or passages of the source.
What was measured:
ALCL cells [1] = details: cited from earlier work
ALCL cells [2] = details: cited from earlier work; remark: listed apart in the source
ALK [3] = target: T1, ALK (Homo sapiens, UniProt Q9UM73); parameters: host or cells: ALCL cells; the other entry of the earlier key: NPM1 (P06748, Nucleophosmin); details: cited from earlier work
Target sequence in this assay (Q9UM73 with tags, fused parts or gaps): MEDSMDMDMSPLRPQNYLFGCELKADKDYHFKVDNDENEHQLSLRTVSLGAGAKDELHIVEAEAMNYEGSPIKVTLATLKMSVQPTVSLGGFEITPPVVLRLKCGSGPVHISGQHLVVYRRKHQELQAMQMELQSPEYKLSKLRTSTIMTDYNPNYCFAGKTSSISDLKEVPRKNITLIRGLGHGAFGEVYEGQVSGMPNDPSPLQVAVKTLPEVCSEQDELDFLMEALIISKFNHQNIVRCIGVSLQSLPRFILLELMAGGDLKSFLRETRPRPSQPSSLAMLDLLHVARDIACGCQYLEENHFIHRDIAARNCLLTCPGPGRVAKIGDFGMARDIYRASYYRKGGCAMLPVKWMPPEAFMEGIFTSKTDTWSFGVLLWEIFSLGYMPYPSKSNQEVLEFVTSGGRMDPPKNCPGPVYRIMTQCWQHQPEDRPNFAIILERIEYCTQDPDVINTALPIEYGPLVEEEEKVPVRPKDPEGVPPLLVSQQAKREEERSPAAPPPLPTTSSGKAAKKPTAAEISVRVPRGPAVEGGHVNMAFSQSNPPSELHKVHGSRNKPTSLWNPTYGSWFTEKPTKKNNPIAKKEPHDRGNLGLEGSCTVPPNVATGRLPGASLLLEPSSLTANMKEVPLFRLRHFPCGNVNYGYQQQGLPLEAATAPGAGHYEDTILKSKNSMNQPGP

NCI-H929 = assay: Inhibition of cell proliferation (CellTiter-Glo or InCell analyzer), NCI-H929; assay type: cell-based; details: Homo sapiens, 72 h / 3 days, values given as IC50 category
Experimental: Cell proliferation was measured by either CellTiter-Glo (measures cellular ATP level as a surrogate for total cell number) or by InCell analyzer (counts number of nuclei as a measure of cell number).
For CellTiter-Glo assay, exponentially growing cell lines of different tumor origins, cultured in appropriate media containing 10% fetal bovine serum at 37° C. in a 5% CO2 incubator, were plated at low density (less than 2000cells/well) in 96-well plates. Twenty four hours post-plating, cells were treated with different concentrations of test compounds ranging from 30 uM to 1.5 nM. Several wells were left untreated as a control. Seventy two hours post-treatment, cell numbers were determined using 50-100 ul per well of CellTiter-Glo (Promega #G7573). Plates were incubated at 37° C. for 30 minutes and the chemiluminescent signal was read on the Victor V or Envison 2100 reader.
For InCell Analyser assay, various cell lines of different tumor origins were grown to 70-80% confluency in appropriate culture media containing 10% fetal bovine serum at 37° C. in a 5% CO2 incubator. On day −1, cells were seeded at 2 densities in 384-well plates and incubated at 37° C. overnight. Stock compound plates were prepared in advance which contained dimethyl sulfoxide (DMSO) alone and a 9-point half-log decreasing dose range of the compound in DMSO. The compound plates were stored at −80° C. and each plate was only thawed once and used. On day 0, the main assay plates received compound or DMSO via a sonic delivery system (ECHO). The highest final concentration of compound of the dose range in the culture plates was 10 uM. These plates were cultured at 37° C. for 3 days. […] On day 3, the compound treated plates were stained and fixed to measure proliferation, apoptosis, and mitotic index using an InCelL1000 analyser. A nuclear stain was used to identify cells in the wells. By counting the number of nuclei, the proliferation index of compound treated groups were calculated as a percentage relative to the DMSO control, which was set to 100%. The IC50 values were calculated using model 205 in ExcelFit.
IC50 (nM) values for compounds of select examples were categorized by relative inhibition of cell proliferation.

[4] = target: T2, NIH-3T3 cells overexpressing human IR (Homo sapiens, UniProt P06213); assay: IR cellular autophosphorylation (DELFIA); assay type: cell-based; details: 2 h compound, insulin 3 ug/ml for 15 minutes, IC50 category
T2 construct: expressed in transfected cells; host or cells: NIH-3T3 (mouse fibroblasts)
Summary of the method: (§1)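 Receptor autophosphorylation measured by DELFIA, capturing IGF-1R or IRβ and detecting with europium anti-pTyr, reported as percent of IGF-1- or insulin-stimulated signal. Compounds (30 uM to 1.5 nM) added 2 h before ligand, then 15 min stimulation (IGF-1 30 ng/ml or insulin 3 ug/ml).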

human IR (hIR) = target: T3, human IR (hIR) (Homo sapiens, UniProt P06213); assay: TR-FRET kinase assay of purified hIR; assay type: biochemical; details: activated hIR 0.5 nM, 10 μM ATP, values given as pIC50 category
T3 construct: containing amino acid residues 979-1382 of human IR; made in house; host or cells: Sf9 cells (baculovirus), same process as hIGF1R

ALK [5] = target: T1, ALK; assay: ALK enzyme assay (HTRF); assay type: biochemical; details: 0.25 nM ALK, 15.0 μM ATP, values given as pIC50 category
Summary of the method: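 Final compound range 0.00017 to 10 μM (twelve 1:3 dilutions). Kinase reaction with ATP and biotinylated synthetic peptide runs 120 min at 20° C, stopped with EDTA; phosphotyrosine detected by HTRF after 60 min. Inhibition referenced to DMSO (1%) and EDTA (0.1 M) controls, curve-fitted.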

[6] = target: T4, NIH-3T3 cells overexpressing human IGF-1R (Homo sapiens, UniProt P08069); assay: IGF-1R cellular autophosphorylation (DELFIA); assay type: cell-based
T4 construct: expressed in transfected cells; host or cells: NIH-3T3 (mouse fibroblasts)
Summary of the method: as §1

Colo205 = assay: Inhibition of cell proliferation (CellTiter-Glo or InCell analyzer), Colo205; assay type: cell-based; details: Homo sapiens, COLO 205, 72 h / 3 days, values given as IC50 category
Summary of the method: In one

human IGF1R (hIGF1R) = target: T5, human IGF1R (hIGF1R) (Homo sapiens, UniProt P08069); assay: TR-FRET kinase assay of purified hIGF1R; assay type: biochemical; details: activated hIGF1R 0.5 nM, 10 μM ATP, values given as pIC50 category, read-out: IGF-1R pIC50 (converted)
T5 construct: containing amino acid residues 957-1367 of human IGF1R; made in house; host or cells: Sf9 cells (baculovirus)
T5 sequence (P08069 957-1367): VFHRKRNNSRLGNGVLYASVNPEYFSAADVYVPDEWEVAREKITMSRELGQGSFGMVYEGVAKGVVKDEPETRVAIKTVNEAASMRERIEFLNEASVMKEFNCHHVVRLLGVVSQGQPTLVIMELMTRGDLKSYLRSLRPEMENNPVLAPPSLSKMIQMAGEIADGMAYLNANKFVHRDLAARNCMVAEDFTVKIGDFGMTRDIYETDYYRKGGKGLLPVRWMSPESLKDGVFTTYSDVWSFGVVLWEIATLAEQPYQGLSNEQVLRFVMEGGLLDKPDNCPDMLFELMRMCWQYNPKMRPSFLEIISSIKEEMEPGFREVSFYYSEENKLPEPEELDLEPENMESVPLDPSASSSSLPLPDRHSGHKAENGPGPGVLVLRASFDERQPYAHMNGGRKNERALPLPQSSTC

T4 sequence (P08069 31-1367): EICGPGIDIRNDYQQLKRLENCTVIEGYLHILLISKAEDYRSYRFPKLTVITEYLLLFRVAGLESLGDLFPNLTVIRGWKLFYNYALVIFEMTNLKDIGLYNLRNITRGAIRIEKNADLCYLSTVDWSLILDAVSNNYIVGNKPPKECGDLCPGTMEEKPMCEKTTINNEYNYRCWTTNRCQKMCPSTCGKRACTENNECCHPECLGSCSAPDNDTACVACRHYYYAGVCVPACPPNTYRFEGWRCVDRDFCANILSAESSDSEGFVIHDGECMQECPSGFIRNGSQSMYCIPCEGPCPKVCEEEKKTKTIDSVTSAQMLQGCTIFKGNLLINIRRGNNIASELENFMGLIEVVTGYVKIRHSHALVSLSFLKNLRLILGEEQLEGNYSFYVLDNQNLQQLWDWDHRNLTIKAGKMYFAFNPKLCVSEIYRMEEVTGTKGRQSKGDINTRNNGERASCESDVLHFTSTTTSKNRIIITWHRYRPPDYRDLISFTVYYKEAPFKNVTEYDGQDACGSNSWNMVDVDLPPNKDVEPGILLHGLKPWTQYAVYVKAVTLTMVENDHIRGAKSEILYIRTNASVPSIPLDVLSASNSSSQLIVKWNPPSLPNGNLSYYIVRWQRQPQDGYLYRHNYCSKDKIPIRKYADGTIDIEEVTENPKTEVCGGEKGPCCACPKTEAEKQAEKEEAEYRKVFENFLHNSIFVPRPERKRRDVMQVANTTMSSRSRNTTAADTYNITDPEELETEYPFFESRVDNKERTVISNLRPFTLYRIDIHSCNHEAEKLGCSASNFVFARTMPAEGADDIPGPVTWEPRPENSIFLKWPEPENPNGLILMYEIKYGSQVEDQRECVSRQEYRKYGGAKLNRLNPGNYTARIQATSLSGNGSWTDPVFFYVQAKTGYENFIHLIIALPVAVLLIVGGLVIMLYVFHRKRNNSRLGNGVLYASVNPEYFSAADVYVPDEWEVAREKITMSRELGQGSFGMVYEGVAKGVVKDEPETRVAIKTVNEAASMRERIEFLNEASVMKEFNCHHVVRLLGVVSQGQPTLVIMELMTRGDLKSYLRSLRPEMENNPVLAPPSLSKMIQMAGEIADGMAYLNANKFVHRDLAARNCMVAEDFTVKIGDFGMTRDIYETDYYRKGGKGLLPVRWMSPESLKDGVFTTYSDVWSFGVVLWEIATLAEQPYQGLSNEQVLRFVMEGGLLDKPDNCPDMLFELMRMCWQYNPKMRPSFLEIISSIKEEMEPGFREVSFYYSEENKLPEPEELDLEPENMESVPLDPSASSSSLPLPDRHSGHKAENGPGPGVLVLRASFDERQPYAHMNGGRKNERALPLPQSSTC
T2 sequence (P06213 28-1382): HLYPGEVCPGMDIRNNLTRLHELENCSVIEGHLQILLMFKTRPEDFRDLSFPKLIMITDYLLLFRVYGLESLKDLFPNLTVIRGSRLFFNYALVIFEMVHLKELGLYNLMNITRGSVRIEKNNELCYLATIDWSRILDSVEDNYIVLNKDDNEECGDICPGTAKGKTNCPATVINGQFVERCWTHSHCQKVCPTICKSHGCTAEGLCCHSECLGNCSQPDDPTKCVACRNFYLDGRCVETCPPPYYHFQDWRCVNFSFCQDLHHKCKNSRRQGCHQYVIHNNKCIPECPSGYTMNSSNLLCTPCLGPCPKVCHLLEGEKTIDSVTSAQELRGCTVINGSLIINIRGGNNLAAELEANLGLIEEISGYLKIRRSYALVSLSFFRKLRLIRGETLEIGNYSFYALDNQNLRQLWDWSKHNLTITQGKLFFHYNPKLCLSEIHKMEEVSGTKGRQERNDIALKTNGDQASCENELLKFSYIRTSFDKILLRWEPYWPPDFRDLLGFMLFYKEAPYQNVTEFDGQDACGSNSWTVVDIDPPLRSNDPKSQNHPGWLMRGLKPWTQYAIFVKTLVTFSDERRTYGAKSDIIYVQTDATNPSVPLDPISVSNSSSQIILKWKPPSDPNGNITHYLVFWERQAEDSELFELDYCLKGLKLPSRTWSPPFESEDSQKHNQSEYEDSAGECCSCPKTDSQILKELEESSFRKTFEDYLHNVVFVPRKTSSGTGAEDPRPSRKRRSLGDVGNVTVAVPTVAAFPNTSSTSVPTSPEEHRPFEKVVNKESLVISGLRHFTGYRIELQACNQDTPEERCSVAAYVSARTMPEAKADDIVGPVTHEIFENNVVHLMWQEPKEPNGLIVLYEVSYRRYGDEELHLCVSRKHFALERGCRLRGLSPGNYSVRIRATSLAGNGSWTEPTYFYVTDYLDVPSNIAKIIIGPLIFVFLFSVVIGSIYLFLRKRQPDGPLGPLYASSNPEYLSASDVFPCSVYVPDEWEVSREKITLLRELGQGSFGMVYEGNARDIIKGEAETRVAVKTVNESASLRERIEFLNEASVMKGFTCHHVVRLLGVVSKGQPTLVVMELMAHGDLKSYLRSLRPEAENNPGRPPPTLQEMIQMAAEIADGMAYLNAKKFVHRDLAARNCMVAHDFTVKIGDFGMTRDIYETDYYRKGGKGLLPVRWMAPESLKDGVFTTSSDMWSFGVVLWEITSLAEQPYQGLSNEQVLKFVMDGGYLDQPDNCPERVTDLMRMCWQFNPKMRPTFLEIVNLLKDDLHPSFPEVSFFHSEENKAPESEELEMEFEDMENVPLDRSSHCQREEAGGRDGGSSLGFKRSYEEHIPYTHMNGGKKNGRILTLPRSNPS
T3 sequence (P06213 979-1382): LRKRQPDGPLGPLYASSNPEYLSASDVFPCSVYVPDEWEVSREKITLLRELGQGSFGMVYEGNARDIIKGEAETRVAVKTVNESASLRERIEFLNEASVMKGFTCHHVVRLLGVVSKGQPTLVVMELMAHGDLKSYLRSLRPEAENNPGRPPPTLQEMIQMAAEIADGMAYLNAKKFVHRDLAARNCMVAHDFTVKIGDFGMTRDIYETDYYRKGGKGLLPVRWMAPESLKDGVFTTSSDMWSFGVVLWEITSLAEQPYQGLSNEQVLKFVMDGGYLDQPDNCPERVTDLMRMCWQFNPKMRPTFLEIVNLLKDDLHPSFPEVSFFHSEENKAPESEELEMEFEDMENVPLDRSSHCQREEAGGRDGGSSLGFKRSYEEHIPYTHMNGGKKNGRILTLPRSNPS

Compound | IC50 (NCI-H929) | IC50 [4] | IC50 (human IR (hIR)) | IC50 (ALK [5]) | IC50 [6] | IC50 (Colo205) | IC50 (human IGF1R (hIGF1R)) | activity against ALCL cells (ALCL cells [1]; in vitro) | activity in tumor xenograft models (ALCL cells [2]; tumor xenograft models) | consequence of the inhibition of ALK autophosphorylation in the cells (ALK [3]) | inhibition of ALK autophosphorylation (ALK [3]) | inhibition of the growth of ALCL cells (ALCL cells [1]; experimental systems in vitro) | inhibition of the growth of ALCL cells (ALCL cells [2]; experimental systems in vivo)
5-chloro-2,4-diaminophenylpyrimidine [NVP-TAE68] |  |  |  |  |  |  |  | active against ALCL cells | active | cell cycle arrest and apoptosis | inhibited ALK autophosphorylation |  | 
CCCN1CCC=C(c2ccc(OC)c(Nc3nc(Nc4ccc(F)cc4C(N)=O)c4cc[nH]c4n3)c2)C1 [Example 57, 5-fluoro-2-[(2-{[2-(methyloxy)-5-(1-propyl-1,2,5,6-tetrahydro-3-pyridinyl)phenyl]amino}-1H-pyrrolo[2,3-d]pyrimidin-4-yl)amino]benzamide] | < 250 nM | < 100 nM | 0.251 to 1 nM | 0.251 to 1 nM | < 100 nM | < 250 nM |  |  |  |  |  |  | 
COc1cc(N2CCN(C(C)C)CC2)ccc1Nc1nc(Nc2ccc(F)cc2C(N)=O)c2cc[nH]c2n1 [Example 60, 5-fluoro-2-[(2-{[4-[4-(1-methylethyl)-1-piperazinyl]-2-(methyloxy)phenyl]amino}-1H-pyrrolo[2,3-d]pyrimidin-4-yl)amino]benzamide] | < 250 nM | 100 to 500 nM | 0.251 to 1 nM | 0.251 to 1 nM | < 100 nM | < 250 nM |  |  |  |  |  |  | 
C[C@@H](Oc1cc(-c2cnn(C3CCNCC3)c2)cnc1N)c1c(Cl)ccc(F)c1Cl [PF2341066] |  |  |  |  |  |  |  |  |  |  |  | inhibit the growth of ALCL cells | inhibit the growth of ALCL cells

Continued, in another order:

IC50 (NCI-H929) | IC50 [4] | IC50 (human IR (hIR)) | IC50 (ALK [5]) | IC50 [6] | IC50 (Colo205) | IC50 (human IGF1R (hIGF1R)) | Compound | activity against ALCL cells (ALCL cells [1]; in vitro) | activity in tumor xenograft models (ALCL cells [2]; tumor xenograft models) | consequence of the inhibition of ALK autophosphorylation in the cells (ALK [3]) | inhibition of ALK autophosphorylation (ALK [3]) | inhibition of the growth of ALCL cells (ALCL cells [1]; experimental systems in vitro) | inhibition of the growth of ALCL cells (ALCL cells [2]; experimental systems in vivo)
250 to 1000 nM | > 500 nM | 5.01 to 158 nM |  | > 500 nM | > 1000 nM | 5.01 to 200 nM | COc1cc2c(cc1Nc1nc(Nc3cccc(F)c3C(N)=O)c3cc[nH]c3n1)N(C(C)=O)CCC2 [Example 216, 2-[(2-{[1-acetyl-6-(methyloxy)-1,2,3,4-tetrahydro-7-quinolinyl]amino}-1H-pyrrolo[2,3-d]pyrimidin-4-yl)amino]-6-fluorobenzamide] |  |  |  |  |  | 
< 250 nM | < 100 nM | 0.251 to 1 nM |  | < 100 nM | < 250 nM | 0.251 to 1 nM | COc1cc2c(cc1Nc1nc(Nc3cccc(F)c3C(N)=O)c3c(F)c[nH]c3n1)N(C(=O)CN(C)C)CC2 [Example 252, 2-[(2-{[1-(N,N-dimethylglycyl)-5-(methyloxy)-2,3-dihydro-1H-indol-6-yl]amino}-5-fluoro-1H-pyrrolo[2,3-d]pyrimidin-4-yl)amino]-6-fluorobenzamide] |  |  |  |  |  | 
< 250 nM | 100 to 500 nM | 0.251 to 1 nM |  | 100 to 500 nM | 250 to 1000 nM | 0.251 to 1 nM | COc1cc2c(cc1Nc1nc(Nc3cccc(F)c3C(N)=O)c3c(C)c[nH]c3n1)N(C(=O)CN(C)C)CC2 [Example 259, 2-[(2-{[1-(N,N-dimethylglycyl)-5-(methyloxy)-2,3-dihydro-1H-indol-6-yl]amino}-5-methyl-1H-pyrrolo[2,3-d]pyrimidin-4-yl)amino]-6-fluorobenzamide] |  |  |  |  |  | 

— patent US7981903B2, “2-[2-{phenylamino}-1H-pyrrolo[2,3-D]pyrimidin-4-yl)amino] benzamide derivatives as IGF-1R inhibitors for the treatment of cancer” (GlaxoSmithKline LLC, priority 2007, dated 2011)
